Laboratory results taken from patent publication US7078059B2, “Treatment of bone diseases” (Shire Holdings AG, priority 2000, dated 2006).

Assays:
[1] = system: mature osteoblasts; assay: In vitro bone formation assay (calcium deposition into bone nodules); format: cell-based, mouse; conditions: LA number = ng/ml lanthanum; lanthanum (III) / lanthanum (III) ion = all concentrations tested, 100 to 15,000 ng/ml; 17-estradiol 10^−10M
Procedure: The activity of mature osteoblasts can be determined by quantifying their ability to form mineralized bone matrix. This is done by demineralizing the formed bone matrix, and determining the amount of calcium released. Thus, this culture system fulfills requirements of an in vitro model useful for studying the bone formation activity of mature osteoblasts. […] At the end of the culture, the amount of calcium deposited during the culture period was determined, and the amount of bone formation (calcium deposition) calculated. […] Extracts of 50 μl were complexed with 1 ml determined o-cresol-phthalein-complexon. The colorimetric reaction was determined at 570 nm in a spectrophotometer. Absolute calcium concentrations were determined by comparison with a calibrated standard provided by the vendor. In this study, the effect of lanthanum carbonate on bone formation was tested. […] The amount of bone formation was determined by measuring the amount of calcium deposited into bone nodules formed by mature osteoblasts. The results are shown as the amount of calcium released (mmol/L) from the bone nodules after HCl extraction. The baseline values are too low to show the results using relative amounts as was done in the other assays.

[2] = system: mouse bone marrow derived osteoprogenitor cells; assay: In vitro osteoblast differentiation assay (cellular alkaline phosphatase); format: cell-based; conditions: LA number = ng/ml lanthanum; lanthanum (III) ion = 100-15000 ng/ml; 17-estradiol 10^−10 M
Excerpt: We have established a culture model in which mouse bone marrow derived osteoprogenitor cells first proliferate and then differentiate to osteoblasts capable of forming mineralized bone nodules (Qu et al. 1998, Qu et al. 1999). We confirmed this by following the expression of several markers of the osteoblastic phenotype and by studying the morphology of cultures at light and electron microscopic level. […] Thus, this culture system fulfills requirements of an in vitro model useful for studying differentiation of osteoprogenitor cells into bone synthesizing osteoblasts. […] Animals were killed by cervical dislocation. Both femora were removed and the soft tissues were detached aseptically. Metaphyses from both ends were cut off and bone marrow cells were collected by flushing the diaphysis with culture medium: phenol red-free-α-modified essential medium (α-MEM (Gibco BRL, Paisley, UK)). […] The cells were cultured for 6 days and half of the media […] days. […] Cells were washed with warm PBS and adherent cells were detached using trypsin-EDTA. […] The test substances were added at the beginning of the secondary culture without estrogen, and every time when the medium was changed. The number of osteoblasts formed was determined by measuring cellular alkaline phosphatase (ALP) activity in the culture. […] Louis, Mo., USA), and overnight freezing. ALP activity was determined colorimetrically using p-nitrophenylphosphate as substrate at pH 9.7 and determining the optical density at 405 nm. In parallel, protein contents of the wells were determined by the BIO-RAD protein assay, and the specific ALP activity is expressed as units/mg protein. […] Osteoblast differentiation was determined by measuring cellular alkaline phosphatase (ALP) activities and total protein amounts from cell lysates. The ALP activities were divided with the corresponding protein amounts to obtain specific activities of ALP. The results are shown as relative specific activities obtained by dividing each individual value with the mean value of the baseline group.

[3] = system: osteoclasts cultured on bone slices; assay: In vitro bone resorption assay (osteoclasts on bovine bone slices, CrossLaps); format: cell-based, rat; conditions: LA number = ng/ml lanthanum; lanthanum (III) ion = any of the concentrations tested (100-15000 ng/ml); bafilomycin Al 10 nM
Excerpt: The method of osteoclast culture on bone slices was originally described by Boyde et al. (1984) and by Chambers et al. (1984). For cell culture, we used a method slightly modified from the original methods (Lakkakorpi et al. 1989, Lakkakorpi and Väänänen, 1991). The rate of bone resorption in the cultures was originally determined by counting the number of resorption pits on each bone or dentine slice using a microscope with phase contrast objectives (Sundquist et al. 1990). Later, the pits were visualized using Wheat Germ Agglutinin lectin that specifically binds to the resorbed area in bone (Selander et al. 1994), making it possible to quantify the total resorbed area using a microscope and computer-assisted image analysis system (Laitala and Väänänen 1994, Hentunen et al. 1995). We used a commercially available method (CrossLaps for cultures, Osteometer Biotech, Herlev, Denmark) to detect the amount of collagen cross-links released into the culture medium as an index of the bone resorption rate (Bagger et al., 1999).
The study protocol uses a method where osteoclasts are cultured on bone slices and allowed to resorb bone. The system is ideal for determining the effect of drug candidates on the bone resorbing activity of osteoclasts. Drug candidates are added into the cell cultures at the beginning of the culture period, and the osteoclasts allowed to resorb bone for 3 days. The amount of bone resorbed during the culture period is determined and compared to the amount of bone resorbed in control cultures (those cultured in the absence of drug candidates).
Transverse 0.1 mm thick slices of cortical bone were cut from the diaphysis of fresh bovine femurs (Atria Slaughterhouse, Oulu, Finland) using a low-speed diamond saw, cleaned by ultrasonication in multiple changes of sterile distilled water, and stored at 4° C. before use. Long bones were removed from 1-day-old rat pups killed by decapitation. […] The resulting suspension of dispersed cells and bone fragments was agitated using a plastic pipette. Larger fragments were allowed to sediment for a few seconds and the supernatant was seeded onto the bone slices pre-wetted in the medium. After a settling period of 30 minutes at 37° C., the bone slices were washed by dipping in fresh medium, and then transferred to wells in 24-well culture dishes containing osteoclast culture medium. The bone slices were incubated in a humidified atmosphere of 95% air and 5% carbon dioxide at 37° C. for 72 hours.
After the culture period, the amount of bone resorption was determined by measuring the amount of collagen cross-links released into the culture medium using a commercial kit (CrossLaps for cultures, Osteometer Biotech) according to the manufacturer s instructions. The number of osteoclasts in each culture was determined by microscopic counting of the amount of TRAP-positive multinuclear cells, and the results are given as the number of collagen cross-links released per one osteoclast.
In the bone resorption assay, the amount of medium CrossLaps (nM) released into the culture medium was determined and the number of osteoclasts in the corresponding cultures calculated. The medium CrossLaps amounts were divided with the osteoclast numbers in the corresponding cultures, and the results are given on Table 1 as relative medium CrossLaps amounts per osteoclasts. The relative values were obtained by dividing each individual value with the mean value of the baseline group.

SMILES | Effect on bone formation activity of mature osteoblasts, in words [1] | Effect on osteoblast differentiation, in words [2] | Effect on bone resorption / bone resorbing activity of mature osteoclasts, in words [3]
C[C@]12CC[C@@H]3c4ccc(O)cc4CC[C@H]3[C@@H]1CC[C@@H]2O [17-β estradiol, reference compound] | activated bone formation significantly | activated osteoblast differentiation significantly | –
CO/C1=C\C(C)=C\[C@@H](C)[C@@H](O)[C@@H](C)C/C(C)=C/C=C/[C@H](OC)[C@@H]([C@@H](C)[C@@H](O)[C@H](C)[C@@]2(O)C[C@@H](O)[C@H](C)[C@@H](C(C)C)O2)OC1=O [Bafilomycin Al, reference compound] | – | – | completely inhibited bone resorption
